# From PMC12298351, “Novel 3,19-(N-Phenyl-3-(4-fluorophenyl)-pyrazole) Acetal of Andrographolide Promotes Cell Cycle Arrest and Apoptosis in MDA-MB-231 Breast Cancer Cells” (Pharmaceuticals, 2025)
# Columns and labels:
# UO-31 = conditions: UO-31, Renal; for CC50: read-out: 50% lethal concentration (LC50)
# SNB-75 = conditions: SNB-75, CNS; for CC50: read-out: 50% lethal concentration (LC50)
# HOP-92 = conditions: for Total growth inhibition (TGI) / CC50: HOP-92, Non-Small Cell Lung; for GI50: HOP-92, Non-Small-Cell Lung; for CC50: read-out: 50% lethal concentration (LC50)
# TK-10 = assay type: cell-based; conditions: TK-10, Renal
# SK-OV-3 = conditions: SK-OV-3, Ovarian; for CC50: read-out: 50% lethal concentration (LC50)
# SF-268 = conditions: SF-268, CNS; for CC50: read-out: 50% lethal concentration (LC50)
# DU-145 = conditions: DU-145, Prostate; for CC50: read-out: 50% lethal concentration (LC50)
# HCT-15 = conditions: HCT-15, Colon; for CC50: read-out: 50% lethal concentration (LC50)
# HCC-2998 = conditions: HCC-2998, Colon
# 786-0 = conditions: 786-0, Renal
# MOLT-4 = conditions: MOLT-4, Leukemia; for CC50: read-out: 50% lethal concentration (LC50)
# BT-549 = assay type: cell-based; conditions: BT-549, Breast
# ACHN = conditions: for GI50 / Total growth inhibition (TGI): Renal; for CC50: read-out: 50% lethal concentration (LC50), Renal
# SNB-19 = assay type: cell-based; conditions: SNB-19, CNS
# NCI-H522 = conditions: for Total growth inhibition (TGI) / CC50: NCI-H522, Non-Small Cell Lung; for GI50: NCI-H522, Non-Small-Cell Lung; for CC50: read-out: 50% lethal concentration (LC50)
# K-562 = conditions: K-562, Leukemia; for CC50: read-out: 50% lethal concentration (LC50)
# RPMI-8226 = conditions: RPMI-8226, Leukemia; for CC50: read-out: 50% lethal concentration (LC50)
# OVCAR-5 = conditions: OVCAR-5, Ovarian; for CC50: read-out: 50% lethal concentration (LC50)
# CCRF-CEM = conditions: for GI50 / Total growth inhibition (TGI): Leukemia; for CC50: read-out: 50% lethal concentration (LC50), Leukemia
# PC-3 = conditions: PC-3, Prostate; for CC50: read-out: 50% lethal concentration (LC50)
# NCI-H23 = conditions: for Total growth inhibition (TGI) / CC50: NCI-H23, Non-Small Cell Lung; for GI50: NCI-H23, Non-Small-Cell Lung; for CC50: read-out: 50% lethal concentration (LC50)
# HL-60(TB) = conditions: for GI50 / Total growth inhibition (TGI): Leukemia; for CC50: read-out: 50% lethal concentration (LC50), Leukemia
# IGROV1 = conditions: IGROV1, Ovarian; for CC50: read-out: 50% lethal concentration (LC50)
# OVCAR-4 = assay type: cell-based; conditions: OVCAR-4, Ovarian
# T-47D = conditions: for GI50 / Total growth inhibition (TGI): Breast; for CC50: read-out: 50% lethal concentration (LC50), Breast
# SK-MEL-5 = conditions: SK-MEL-5, Melanoma; for CC50: read-out: 50% lethal concentration (LC50)
# COLO 205 = conditions: COLO 205, Colon
# MDA-MB-435 = conditions: MDA-MB-435, Melanoma; for CC50: read-out: 50% lethal concentration (LC50)
# UACC-62 = conditions: UACC-62, Melanoma; for CC50: read-out: 50% lethal concentration (LC50)
# SF-295 = conditions: SF-295, CNS; for CC50: read-out: 50% lethal concentration (LC50)
# HCT-116 = assay type: cell-based; conditions: HCT-116, Colon
# UACC-257 = conditions: UACC-257, Melanoma
# [1] = read-out: 50% lethal concentration (LC50)
structure (smiles),measurement,setting,value
C=C1CCC2C3(C)COC(c4cn(-c5ccccc5)nc4-c4ccc(C)cc4)OC3CCC2(C)C1CC=C1C(=O)OCC1O (stereo not shown) [1i],GI50,UO-31,1.77 µM
same,Total growth inhibition (TGI),UO-31,2.67 µM
same,CC50,UO-31,5.36 µM
same,GI50,SNB-75,1.71 µM
same,Total growth inhibition (TGI),SNB-75,2.99 µM
same,CC50,SNB-75,6.55 µM
same,Total growth inhibition (TGI),HOP-92,3.14 µM
same,GI50,HOP-92,1.43 µM
same,CC50,HOP-92,6.88 µM
same,GI50,TK-10,1.33 µM
same,GI50,SK-OV-3,3.47 µM
same,Total growth inhibition (TGI),SK-OV-3,12.1 µM
same,CC50,SK-OV-3,> 100 µM
same,GI50,SF-268,2.61 µM
same,Total growth inhibition (TGI),SF-268,7.58 µM
same,CC50,SF-268,55.4 µM
same,GI50,DU-145,2.05 µM
same,Total growth inhibition (TGI),DU-145,4.19 µM
same,CC50,DU-145,8.55 µM
same,GI50,HCT-15,1.59 µM
same,Total growth inhibition (TGI),HCT-15,3.19 µM
same,CC50,HCT-15,6.38 µM
same,GI50,HCC-2998,1.63 µM
same,Total growth inhibition (TGI),HCC-2998,3.06 µM
same,GI50,786-0,1.77 µM
same,Total growth inhibition (TGI),786-0,3.69 µM
same,GI50,MOLT-4,2.11 µM
same,Total growth inhibition (TGI),MOLT-4,> 100 µM
same,CC50,MOLT-4,> 100 µM
same,GI50,BT-549,1.2 µM
same,Total growth inhibition (TGI),BT-549,3.02 µM
same,GI50,ACHN,1.83 µM
same,Total growth inhibition (TGI),ACHN,3.5 µM
same,CC50,ACHN,6.67 µM
same,GI50,SNB-19,1.36 µM
same,Total growth inhibition (TGI),NCI-H522,3.46 µM
same,GI50,NCI-H522,1.75 µM
same,CC50,NCI-H522,6.86 µM
same,GI50,K-562,3.82 µM
same,Total growth inhibition (TGI),K-562,> 100 µM
same,CC50,K-562,> 100 µM
same,GI50,RPMI-8226,8.6 µM
same,Total growth inhibition (TGI),RPMI-8226,> 100 µM
same,CC50,RPMI-8226,> 100 µM
same,GI50,OVCAR-5,1.93 µM
same,Total growth inhibition (TGI),OVCAR-5,4.59 µM
same,CC50,OVCAR-5,40.5 µM
same,GI50,CCRF-CEM,8.4 µM
same,Total growth inhibition (TGI),CCRF-CEM,> 100 µM
same,CC50,CCRF-CEM,> 100 µM
same,GI50,PC-3,1.92 µM
same,CC50,PC-3,> 100 µM
same,Total growth inhibition (TGI),NCI-H23,3.5 µM
same,GI50,NCI-H23,1.76 µM
same,CC50,NCI-H23,6.96 µM
same,GI50,HL-60(TB),2.17 µM
same,Total growth inhibition (TGI),HL-60(TB),> 100 µM
same,CC50,HL-60(TB),> 100 µM
same,GI50,IGROV1,3.95 µM
same,Total growth inhibition (TGI),IGROV1,12.5 µM
same,CC50,IGROV1,> 100 µM
same,GI50,OVCAR-4,1.92 µM
same,Total growth inhibition (TGI),OVCAR-4,4.27 µM
same,GI50,T-47D,1.14 µM
same,Total growth inhibition (TGI),T-47D,3.55 µM
same,CC50,T-47D,> 100 µM
same,GI50,SK-MEL-5,1.59 µM
same,Total growth inhibition (TGI),SK-MEL-5,2.96 µM
same,CC50,SK-MEL-5,5.49 µM
same,GI50,COLO 205,1.97 µM
same,Total growth inhibition (TGI),COLO 205,4.5 µM
same,GI50,MDA-MB-435,1.61 µM
same,Total growth inhibition (TGI),MDA-MB-435,3.31 µM
same,CC50,MDA-MB-435,6.79 µM
same,GI50,UACC-62,1.64 µM
same,Total growth inhibition (TGI),UACC-62,3.15 µM
same,CC50,UACC-62,6.04 µM
same,GI50,SF-295,1.58 µM
same,Total growth inhibition (TGI),SF-295,2.96 µM
same,CC50,SF-295,5.54 µM
same,GI50,HCT-116,3.91 µM
same,Total growth inhibition (TGI),HCT-116,1.52 µM
same,GI50,UACC-257,1.74 µM
same,Total growth inhibition (TGI),UACC-257,3.47 µM
C=C1CCC2C3(C)COC(c4cn(-c5ccccc5)nc4-c4cccc(F)c4)OC3CCC2(C)C1CC=C1C(=O)OCC1O (stereo not shown) [1c],GI50,UO-31,1.78 µM
same,Total growth inhibition (TGI),UO-31,2.77 µM
same,CC50,UO-31,5.46 µM
same,Total growth inhibition (TGI),SNB-75,3.55 µM
same,CC50,SNB-75,5.82 µM
same,Total growth inhibition (TGI),HOP-92,3.03 µM
same,GI50,HOP-92,1.53 µM
same,CC50,HOP-92,6.02 µM
same,GI50,TK-10,1.41 µM
same,GI50,SK-OV-3,2.7 µM
same,Total growth inhibition (TGI),SK-OV-3,6.09 µM
same,CC50,SK-OV-3,> 100 µM
same,GI50,SF-268,2.27 µM
same,Total growth inhibition (TGI),SF-268,5.61 µM
same,CC50,SF-268,28.4 µM
same,GI50,DU-145,1.97 µM
same,Total growth inhibition (TGI),DU-145,4.25 µM
same,CC50,DU-145,9.15 µM
same,GI50,HCT-15,1.57 µM
same,Total growth inhibition (TGI),HCT-15,3.18 µM
same,CC50,HCT-15,6.45 µM
same,GI50,HCC-2998,1.73 µM
same,Total growth inhibition (TGI),HCC-2998,3.2 µM
same,GI50,786-0,1.78 µM
same,Total growth inhibition (TGI),786-0,3.59 µM
same,CC50,786-0; [1],7.24 µM
same,GI50,MOLT-4,0.69 µM
same,CC50,MOLT-4,> 100 µM
same,GI50,BT-549,1.3 µM
same,Total growth inhibition (TGI),BT-549,3.01 µM
same,GI50,ACHN,1.8 µM
same,Total growth inhibition (TGI),ACHN,3.53 µM
same,CC50,ACHN,6.94 µM
same,Total growth inhibition (TGI),SNB-19,2.72 µM
same,Total growth inhibition (TGI),NCI-H522,3.08 µM
same,GI50,NCI-H522,1.52 µM
same,CC50,NCI-H522,6.24 µM
same,GI50,K-562,2.14 µM
same,Total growth inhibition (TGI),K-562,> 100 µM
same,CC50,K-562,> 100 µM
same,GI50,RPMI-8226,2.63 µM
same,Total growth inhibition (TGI),RPMI-8226,> 100 µM
same,CC50,RPMI-8226,> 100 µM
same,GI50,OVCAR-5,1.92 µM
same,Total growth inhibition (TGI),OVCAR-5,4.61 µM
same,CC50,OVCAR-5,31 µM
same,GI50,CCRF-CEM,2.06 µM
same,Total growth inhibition (TGI),CCRF-CEM,> 100 µM
same,CC50,CCRF-CEM,> 100 µM
same,GI50,PC-3,1.97 µM
same,Total growth inhibition (TGI),PC-3,4.56 µM
same,CC50,PC-3,> 100 µM
same,Total growth inhibition (TGI),NCI-H23,3.57 µM
same,GI50,NCI-H23,1.79 µM
same,CC50,NCI-H23,7.09 µM
same,GI50,HL-60(TB),0.76 µM
same,Total growth inhibition (TGI),HL-60(TB),> 100 µM
same,CC50,HL-60(TB),> 100 µM
same,GI50,IGROV1,2.07 µM
same,Total growth inhibition (TGI),IGROV1,5.72 µM
same,CC50,IGROV1,> 100 µM
same,GI50,OVCAR-4,1.74 µM
same,Total growth inhibition (TGI),OVCAR-4,4.27 µM
same,CC50,OVCAR-4; [1],> 100 µM
same,GI50,T-47D,1.39 µM
same,Total growth inhibition (TGI),T-47D,4.07 µM
same,CC50,T-47D,> 100 µM
same,GI50,SK-MEL-5,1.65 µM
same,Total growth inhibition (TGI),SK-MEL-5,3.02 µM
same,CC50,SK-MEL-5,5.51 µM
same,GI50,COLO 205,2.06 µM
same,Total growth inhibition (TGI),COLO 205,4.65 µM
same,GI50,MDA-MB-435,1.5 µM
same,Total growth inhibition (TGI),MDA-MB-435,3.08 µM
same,CC50,MDA-MB-435,6.32 µM
same,GI50,UACC-62,1.65 µM
same,Total growth inhibition (TGI),UACC-62,3.21 µM
same,CC50,UACC-62,6.22 µM
same,GI50,SF-295,1.52 µM
same,Total growth inhibition (TGI),SF-295,2.88 µM
same,CC50,SF-295,5.49 µM
same,GI50,HCT-116,3.48 µM
same,Total growth inhibition (TGI),HCT-116,1.59 µM
same,GI50,UACC-257,1.93 µM
same,Total growth inhibition (TGI),UACC-257,3.87 µM
